Measurements from PubChem BioAssay AID248 (DTP/NCI, 2004).
Values joined by “and” are separate entries in the source; they are usually repeats but may differ in a detail not shown here. Equal values may be shown once. Toxic doses and inconclusive results are not listed.

System: L1210 leukemia ip in BDF1 mice, survival T/C
Experiment: NCI In Vivo Anticancer Drug Screen. Data for tumor model L1210 Leukemia (intraperitoneal) in B6D2F1 (BDF1) mice
Conditions: higher = longer survival
Summary of the method: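 Transplantable tumor model; survival measured in treated vs vehicle control mice. Value = treated/control.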

[1] = endpoint: mean survival time, dose: 100.0 mg/kg/injection, schedule: Q01DX001 (ip), vehicle: saline
[2] = endpoint: mean survival time, dose: 200.0 mg/kg/injection, schedule: Q01DX001 (ip), vehicle: saline
[3] = endpoint: mean survival time, dose: 400.0 mg/kg/injection, schedule: Q01DX001 (ip), vehicle: saline
[4] = endpoint: mean survival time, dose: 100.0 mg/kg/injection, schedule: Q04DX003 (ip), vehicle: saline
[5] = endpoint: mean survival time, dose: 200.0 mg/kg/injection, schedule: Q04DX003 (ip), vehicle: saline
[6] = endpoint: mean survival time, dose: 400.0 mg/kg/injection, schedule: Q01DX009 (ip), vehicle: saline
[7] = endpoint: mean survival time, dose: 400.0 mg/kg/injection, schedule: Q04DX003 (ip), vehicle: saline

Compound: CN(C)c1ccc(C=Nc2ccc(O)cc2)cc1
- T/C [1]: 88 % of control
- T/C [2]: 94 % of control
- T/C [3]: 96 % of control

Compound: O=C(O)c1ccc(NC(=O)c2ccc(C(=O)Nc3ccc(C(=O)O)cc3)cc2)cc1
- T/C (endpoint: mean survival time, dose: 15.0 mg/kg/injection, schedule: Q01DX Z (ip), vehicle: methylcellulose (MC)): 101 % of control
- T/C (endpoint: mean survival time, dose: 60.0 mg/kg/injection, schedule: Q01DX Z (ip), vehicle: methylcellulose (MC)): 98 % of control
- T/C (endpoint: mean survival time, dose: 120.0 mg/kg/injection, schedule: Q01DX Z (ip), vehicle: methylcellulose (MC)): 95 % of control

Compound: O=C1C=CN(C2OC(CO)C(O)C2O)C(=O)C1 (stereo not drawn)
- T/C (endpoint: mean survival time, dose: 0.75 mg/kg/injection, schedule: Q01DX009 (ip), vehicle: saline): 117 % of control
- T/C (endpoint: mean survival time, dose: 1.5 mg/kg/injection, schedule: Q01DX009 (ip), vehicle: saline): 117 % of control
- T/C (endpoint: mean survival time, dose: 4.8 mg/kg/injection, schedule: Q01DX009 (ip), vehicle: saline): 120 % of control
- T/C (endpoint: mean survival time, dose: 7.8 mg/kg/injection, schedule: Q01DX005 (ip), vehicle: other): 107 % of control
- T/C (endpoint: mean survival time, dose: 15.75 mg/kg/injection, schedule: Q01DX005 (ip), vehicle: other): 116 % of control
- T/C (endpoint: mean survival time, dose: 22.0 mg/kg/injection, schedule: Q01DX009 (ip), vehicle: saline): 124 % of control
- T/C (endpoint: mean survival time, dose: 31.25 mg/kg/injection, schedule: Q01DX005 (ip), vehicle: other): 123 % of control
- T/C (endpoint: mean survival time, dose: 62.5 mg/kg/injection, schedule: Q01DX005 (ip), vehicle: other): 124 % of control
- T/C [1]: 105 % of control
- T/C [4]: 108 % of control
- T/C (endpoint: mean survival time, dose: 112.0 mg/kg/injection, schedule: Q03HX024 (ip), vehicle: saline): 176 % of control
- T/C [2]: 114 % of control
- T/C [5]: 119 % of control
- T/C [3]: 105 % of control
- T/C [6]: 115 % of control
- T/C [7]: 116 % of control
- T/C (endpoint: median survival time, dose: 6.25 mg/kg/injection, schedule: Q01DX009 (ip), vehicle: saline): 122 % of control
- T/C (endpoint: median survival time, dose: 12.5 mg/kg/injection, schedule: Q01DX009 (ip), vehicle: saline): 122 % of control
- T/C (endpoint: median survival time, dose: 16.0 mg/kg/injection, schedule: Q03HX008 (ip), vehicle: saline): 105 % of control
- T/C (endpoint: median survival time, dose: 16.0 mg/kg/injection, schedule: Q03HX016 (ip), vehicle: saline): 103 % of control
- T/C (endpoint: median survival time, dose: 26.0 mg/kg/injection, schedule: Q03HX024 (ip), vehicle: saline): 150 % of control
- T/C (endpoint: median survival time, dose: 32.0 mg/kg/injection, schedule: Q01DX009 (sc), vehicle: saline): 118 % of control
- T/C (endpoint: median survival time, dose: 32.0 mg/kg/injection, schedule: Q03HX008 (ip), vehicle: saline): 106 % of control
- T/C (endpoint: median survival time, dose: 32.0 mg/kg/injection, schedule: Q03HX016 (ip), vehicle: saline): 101 % of control
- T/C (endpoint: median survival time, dose: 64.0 mg/kg/injection, schedule: Q01DX009 (sc), vehicle: saline): 123 % of control
- T/C (endpoint: median survival time, dose: 64.0 mg/kg/injection, schedule: Q03HX008 (ip), vehicle: saline): 103 % of control
- T/C (endpoint: median survival time, dose: 64.0 mg/kg/injection, schedule: Q03HX016 (ip), vehicle: saline): 103 % of control
- T/C (endpoint: median survival time, dose: 64.0 mg/kg/injection, schedule: Q04DX003 (ip), vehicle: saline): 103 % of control
- T/C (endpoint: median survival time, dose: 74.0 mg/kg/injection, schedule: Q01DX009 (oral), vehicle: saline): 116 % of control
- T/C (endpoint: median survival time, dose: 110.0 mg/kg/injection, schedule: Q01DX009 (oral), vehicle: saline): 100 % of control
- T/C (endpoint: median survival time, dose: 128.0 mg/kg/injection, schedule: Q01DX001 (ip), vehicle: saline): 98 % of control
- T/C (endpoint: median survival time, dose: 128.0 mg/kg/injection, schedule: Q01DX009 (ip), vehicle: saline): 156 % of control
- T/C (endpoint: median survival time, dose: 128.0 mg/kg/injection, schedule: Q01DX009 (oral), vehicle: saline): 111 % of control
- T/C (endpoint: median survival time, dose: 128.0 mg/kg/injection, schedule: Q03HX008 (ip), vehicle: saline): 108 % of control
- T/C (endpoint: median survival time, dose: 128.0 mg/kg/injection, schedule: Q03HX016 (ip), vehicle: saline): 110 % of control
- T/C (endpoint: median survival time, dose: 128.0 mg/kg/injection, schedule: Q04DX003 (ip), vehicle: saline): 104 % of control
- T/C (endpoint: median survival time, dose: 128.0 mg/kg/injection, schedule: Q04DX003 (oral), vehicle: saline): 104 % of control and 110 % of control
- T/C (endpoint: median survival time, dose: 128.0 mg/kg/injection, schedule: Q04DX003 (sc), vehicle: saline): 112 % of control
- T/C (endpoint: median survival time, dose: 128.0 mg/kg/injection, schedule: Q08DX002 (ip), vehicle: saline): 94 % of control
- T/C (endpoint: median survival time, dose: 164.0 mg/kg/injection, schedule: Q01DX009 (oral), vehicle: saline): 111 % of control
- T/C (endpoint: median survival time, dose: 170.0 mg/kg/injection, schedule: Q04DX003 (ip), vehicle: saline): 111 % of control
- T/C (endpoint: median survival time, dose: 248.0 mg/kg/injection, schedule: Q01DX009 (oral), vehicle: saline): 100 % of control
- T/C (endpoint: median survival time, dose: 256.0 mg/kg/injection, schedule: Q01DX001 (ip), vehicle: saline): 105 % of control
- T/C (endpoint: median survival time, dose: 256.0 mg/kg/injection, schedule: Q01DX009 (ip), vehicle: saline): 180 % of control
- T/C (endpoint: median survival time, dose: 256.0 mg/kg/injection, schedule: Q01DX009 (oral), vehicle: saline): 107 % of control and 110 % of control
- T/C (endpoint: median survival time, dose: 256.0 mg/kg/injection, schedule: Q03HX008 (ip), vehicle: saline): 116 % of control
- T/C (endpoint: median survival time, dose: 256.0 mg/kg/injection, schedule: Q03HX016 (ip), vehicle: saline): 122 % of control
- T/C (endpoint: median survival time, dose: 256.0 mg/kg/injection, schedule: Q04DX003 (ip), vehicle: saline): 112 % of control
- T/C (endpoint: median survival time, dose: 256.0 mg/kg/injection, schedule: Q04DX003 (oral), vehicle: saline): 117 % of control and 123 % of control
- T/C (endpoint: median survival time, dose: 256.0 mg/kg/injection, schedule: Q04DX003 (sc), vehicle: saline): 120 % of control
- T/C (endpoint: median survival time, dose: 256.0 mg/kg/injection, schedule: Q08DX002 (ip), vehicle: saline): 97 % of control
- T/C (endpoint: median survival time, dose: 260.0 mg/kg/injection, schedule: Q04DX003 (ip), vehicle: saline): 111 % of control
- T/C (endpoint: median survival time, dose: 400.0 mg/kg/injection, schedule: Q01DX009 (ip), vehicle: saline): 155 % of control
- T/C (endpoint: median survival time, dose: 512.0 mg/kg/injection, schedule: Q01DX001 (ip), vehicle: saline): 100 % of control
- T/C (endpoint: median survival time, dose: 512.0 mg/kg/injection, schedule: Q01DX009 (oral), vehicle: saline): 97 % of control and 100 % of control
- T/C (endpoint: median survival time, dose: 512.0 mg/kg/injection, schedule: Q04DX003 (ip), vehicle: saline): 122 % of control
- T/C (endpoint: median survival time, dose: 512.0 mg/kg/injection, schedule: Q04DX003 (oral), vehicle: saline): 105 % of control
- T/C (endpoint: median survival time, dose: 512.0 mg/kg/injection, schedule: Q04DX003 (sc), vehicle: saline): 119 % of control
- T/C (endpoint: median survival time, dose: 512.0 mg/kg/injection, schedule: Q08DX002 (ip), vehicle: saline): 95 % of control
- T/C (endpoint: median survival time, dose: 580.0 mg/kg/injection, schedule: Q04DX003 (ip), vehicle: saline): 111 % of control
- T/C (endpoint: median survival time, dose: 600.0 mg/kg/injection, schedule: Q01DX009 (ip), vehicle: saline): 110 % of control
- T/C (endpoint: median survival time, dose: 1024.0 mg/kg/injection, schedule: Q01DX001 (ip), vehicle: saline): 101 % of control
- T/C (endpoint: median survival time, dose: 1024.0 mg/kg/injection, schedule: Q01DX009 (oral), vehicle: saline): 95 % of control
- T/C (endpoint: median survival time, dose: 1024.0 mg/kg/injection, schedule: Q08DX002 (ip), vehicle: saline): 106 % of control
- T/C (endpoint: median survival time, dose: 2048.0 mg/kg/injection, schedule: Q01DX001 (ip), vehicle: saline): 111 % of control
- T/C (endpoint: median survival time, dose: 2048.0 mg/kg/injection, schedule: Q08DX002 (ip), vehicle: saline): 119 % of control

Compound: COc1cc[n+]([O-])cc1
- T/C (endpoint: mean survival time, dose: 100.0 mg/kg/injection, schedule: Q01DX009 (ip), vehicle: saline): 103 % of control
- T/C (endpoint: mean survival time, dose: 100.0 mg/kg/injection, schedule: Q01DX Z (ip), vehicle: saline): 102 % of control and 106 % of control
- T/C [4]: 121 % of control
- T/C (endpoint: mean survival time, dose: 150.0 mg/kg/injection, schedule: Q01DX Z (ip), vehicle: saline): 103 % of control and 107 % of control
- T/C (endpoint: mean survival time, dose: 200.0 mg/kg/injection, schedule: Q01DX009 (ip), vehicle: saline): 100 % of control
- T/C [5]: 114 % of control
- T/C (endpoint: mean survival time, dose: 225.0 mg/kg/injection, schedule: Q01DX Z (ip), vehicle: saline): 95 % of control and 97 % of control
- T/C (endpoint: mean survival time, dose: 300.0 mg/kg/injection, schedule: Q01DX Z (ip), vehicle: saline): 92 % of control and 106 % of control
- T/C [6]: 99 % of control
- T/C [7]: 95 % of control

Compound: Cc1ccc(NC(=O)C(=O)Nc2ccc(C)cc2)cc1
- T/C (endpoint: mean survival time, dose: 100.0 mg/kg/injection, schedule: Q01DX009 (ip), vehicle: Klucel (hydroxypropylcellulose) (HPC)): 90 % of control
- T/C (endpoint: mean survival time, dose: 100.0 mg/kg/injection, schedule: Q04DX003 (ip), vehicle: other): 93 % of control
- T/C (endpoint: mean survival time, dose: 200.0 mg/kg/injection, schedule: Q01DX009 (ip), vehicle: Klucel (hydroxypropylcellulose) (HPC)): 89 % of control
- T/C (endpoint: mean survival time, dose: 200.0 mg/kg/injection, schedule: Q04DX003 (ip), vehicle: other): 92 % of control
- T/C (endpoint: mean survival time, dose: 400.0 mg/kg/injection, schedule: Q01DX009 (ip), vehicle: Klucel (hydroxypropylcellulose) (HPC)): 90 % of control
- T/C (endpoint: mean survival time, dose: 400.0 mg/kg/injection, schedule: Q04DX003 (ip), vehicle: other): 89 % of control
